Laboratory results taken from US20250179066A1, “ZWITTERIONIC ANTIBACTERIAL COMPOUNDS” (Hoffmann-La Roche Inc., priority 2022, published 2025).
Where a name gives a salt, the structure may show the parent alone.

Tested on: Acinetobacter baumannii ATCC17961
Assay: Antimicrobial susceptibility testing: 90% growth inhibitory concentration (IC90) determination
Format: cell-based
Conditions: 90% growth inhibitory concentration against Acinetobacter baumannii ATCC17961, Iso-Sensitest broth, OD 600 nm over 16 h; read-out: ATCC 17961 IC90
Method: The in vitro antimicrobial activity of the compounds was determined according to the following procedure: The assay used a 10-points Iso-Sensitest broth medium to measure quantitatively the in vitro activity of the compounds against Acinetobacter baumannii ATCC17961. Stock compounds in DMSO were serially twofold diluted (e.g. range from 10 to 0.0195 μM final concentration) in 384 wells microtiter plates and inoculated with 49 μL the bacterial suspension in Iso-Sensitest medium to have a final cell concentration of ˜5×10^(5) CFU/mL in a final volume/well of 50 μL/well. Microtiter plates were incubated at 35±2° C. Bacterial cell growth was determined with the measurement of optical density at λ=600 nm each min over a time course of 16 h. Growth inhibition was calculated during the logarithmic growth of the bacterial cells with determination of the concentration inhibiting 50% (IC50) and 90% (IC90) of the growth. Table 1 provides the 90% growth inhibitory concentrations (IC90) in micromoles per liter of the compounds of present invention obtained against the strain Acinetobacter baumannii ATCC17961.

Row | SMILES | IC90
1 | Cn1c(-c2cn(-c3ccc(N)cn3)nc2C(F)(F)F)cnc1C(=O)Nc1ccc(C(=O)N2CCN(C(=O)CCC[N+](CCCCN)(CCCCN)CC(=O)O)CC2)c(Cl)c1 [Example 20, bis(4-aminobutyl)-[4-[4-[4-[[5-[1-(5-amino-2-pyridyl)-3-(trifluoromethyl)pyrazol-4-yl]-1-methyl-imidazole-2-carbonyl]amino]-2-chloro-benzoyl]piperazino]-4-keto-butyl]-(carboxymethyl)ammonium. 1:1 2,2,2-trifluoroacetic acid. 1:1 2,2,2-trifluoroacetate] | 300 nM

Same assay, conditions: Acinetobacter baumannii, ATCC17961, 16 h, 90% growth inhibitory concentration against Acinetobacter baumannii ATCC17961, Iso-Sensitest broth, OD 600 nm over 16 h; read-out: ATCC 17961 IC90

Row | SMILES | IC90
2 | Cn1c(-c2cn(-c3ccc(NCCCN)cn3)nc2C(F)(F)F)cnc1C(=O)Nc1ccc(C(=O)N2CCN(C(=O)[C@H]3CC[N@+](CC(=O)O)(CC4CNC4)CC3)CC2)c(Cl)c1 [Example 15, cis-2-[4-[4-[4-[[5-[1-[5-(3-aminopropylamino)-2-pyridyl]-3-(trifluoromethyl)pyrazol-4-yl]-1-methyl-imidazole-2-carbonyl]amino]-2-chloro-benzoyl]piperazine-1-carbonyl]-1-(azetidin-3-ylmethyl)piperidin-1-ium-1-yl]acetic acid. 1:1 2,2,2-trifluoroacetic acid. 1:1 2,2,2-trifluoroacetate] | 210 nM
3 | Cn1c(-c2cn(-c3ccc(N)cc3F)nc2C(F)(F)F)cnc1C(=O)Nc1ccc(C(=O)N2CCN(C(=O)[C@H]3CC[N@+](CC(=O)O)(CC4CNC4)CC3)CC2)c(Cl)c1 [Example 16, cis-2-[4-[4-[4-[[5-[1-(4-amino-2-fluoro-phenyl)-3-(trifluoromethyl)pyrazol-4-yl]-1-methyl-imidazole-2-carbonyl]amino]-2-chloro-benzoyl]piperazine-1-carbonyl]-1-(azetidin-3-ylmethyl)piperidin-1-ium-1-yl]acetic acid. 1:1 2,2,2-trifluoroacetate] | 210 nM
4 | Cn1c(-c2cn(-c3ccc(N)cc3F)nc2C(F)(F)F)cnc1C(=O)Nc1ccc(C(=O)N2CCN(C(=O)C3CC[N+](CC(=O)O)(CC4CNC4)CC3)CC2)c(Cl)c1 (stereo not drawn) [Example 17, 2-[4-[4-[4-[[5-[1-(4-amino-2-fluoro-phenyl)-3-(trifluoromethyl)pyrazol-4-yl]-1-methyl-imidazole-2-carbonyl]amino]-2-chloro-benzoyl]piperazine-1-carbonyl]-1-(azetidin-3-ylmethyl)piperidin-1-ium-1-yl]acetic acid. 1:1 2,2,2-trifluoroacetate] | 240 nM
5 | Cn1c(-c2cn(-c3ccc4[nH]ccc4n3)nc2C(F)(F)F)cnc1C(=O)Nc1ccc(C(=O)N2CCN(C(=O)C3CC[N+](CC(=O)O)(CC4CNC4)CC3)CC2)c(Cl)c1 (stereo not drawn) [Example 18, 2-[1-(azetidin-3-ylmethyl)-4-[4-[2-chloro-4-[[1-methyl-5-[1-(1H-pyrrolo[3,2-b]pyridin-5-yl)-3-(trifluoromethyl)pyrazol-4-yl]imidazole-2-carbonyl]amino]benzoyl]piperazine-1-carbonyl]piperidin-1-ium-1-yl]acetic acid. 1:1 formate] | 260 nM
6 | C[C@H](N)CNc1ccc(-n2cc(-c3cnc(C(=O)Nc4ccc(C(=O)N5CCN(C(=O)C6CC[N+](CC(=O)O)(CC7CNC7)CC6)CC5)c(Cl)c4)n3C)c(C(F)(F)F)n2)nc1 (stereo partly drawn) [Example 19, 2-[4-[4-[4-[[5-[1-[5-[[(2S)-2-Aminopropyl]amino]-2-pyridyl]-3-(trifluoromethyl)pyrazol-4-yl]-1-methyl-imidazole-2-carbonyl]amino]-2-chloro-benzoyl]piperazine-1-carbonyl]-1-(azetidin-3-ylmethyl)piperidin-1-ium-1-yl]acetic Acid.1:1 formic Acid.1:1 formate] | 260 nM
7 | Cn1c(-c2cn(-c3ccc(CN)cn3)nc2C(F)(F)F)cnc1C(=O)Nc1ccc(C(=O)N2CCN(C(=O)C3CC[N+](CC(=O)O)(CC4CNC4)CC3)CC2)c(Cl)c1 (stereo not drawn) [Example 21, 2-[4-[4-[4-[[5-[1-[5-(Aminomethyl)-2-pyridyl]-3-(trifluoromethyl)pyrazol-4-yl]-1-methyl-imidazole-2-carbonyl]amino]-2-chloro-benzoyl]piperazine-1-carbonyl]-1-(azetidin-3-ylmethyl)piperidin-1-ium-1-yl]acetic Acid.1:1 formic Acid.1:1 formate] | 320 nM
8 | COc1ccc(-n2cc(-c3cnc(C(=O)Nc4ccc(C(=O)N5CCN(C(=O)C6CC[N+](CC(=O)O)(CC7CNC7)CC6)CC5)c(Cl)c4)n3C)c(C(F)(F)F)n2)nc1 (stereo not drawn) [Example 22, 2-[1-(azetidin-3-ylmethyl)-4-[4-[2-chloro-4-[[5-[1-(5-methoxy-2-pyridyl)-3-(trifluoromethyl)pyrazol-4-yl]-1-methyl-imidazole-2-carbonyl]amino]benzoyl]piperazine-1-carbonyl]piperidin-1-ium-1-yl]acetic acid. 1:1 formate] | 330 nM
9 | Cn1c(-c2cn(-c3ccc(NCc4ccccn4)cn3)nc2C(F)(F)F)cnc1C(=O)Nc1ccc(C(=O)N2CCN(C(=O)C3CC[N+](CC(=O)O)(CC4CNC4)CC3)CC2)c(Cl)c1 (stereo not drawn) [Example 23, 2-[1-(azetidin-3-ylmethyl)-4-[4-[2-chloro-4-[[1-methyl-5-[1-[5-(2-pyridylmethylamino)-2-pyridyl]-3-(trifluoromethyl)pyrazol-4-yl]imidazole-2-carbonyl]amino]benzoyl]piperazine-1-carbonyl]piperidin-1-ium-1-yl]acetic acid. 1:1 2,2,2-trifluoroacetate] | 340 nM
10 | Cn1c(-c2cn(-c3ccc(NCC4(N)CCCC4)cn3)nc2C(F)(F)F)cnc1C(=O)Nc1ccc(C(=O)N2CCN(C(=O)C3CC[N+](CC(=O)O)(CC4CNC4)CC3)CC2)c(Cl)c1 (stereo not drawn) [Example 24, 2-[4-[4-[4-[[5-[1-[5-[(1-aminocyclopentyl)methylamino]-2-pyridyl]-3-(trifluoromethyl)pyrazol-4-yl]-1-methyl-imindazole-2-carbonyl]amino]-2-chloro-benzoyl]piperazine-1-carbonyl]-1-(azetidin-3-ylmethyl)piperidin-1-ium-1-yl]acetic acid. 1:1 2,2,2-trifluoroacetic acid. 1:1 2,2,2-trifluoroacetate] | 350 nM
11 | CNc1ccc(-n2cc(-c3cnc(C(=O)Nc4ccc(C(=O)N5CCN(C(=O)C6CC[N+](CC(=O)O)(CC7CNC7)CC6)CC5)c(Cl)c4)n3C)c(C(F)(F)F)n2)nc1 (stereo not drawn) [Example 25, 2-[1-(azetidin-3-ylmethyl)-4-[4-[2-chloro-4-[[1-methyl-5-[1-[5-(methylamino)-2-pyridyl]-3-(trifluoromethyl)pyrazol-4-yl]imidazole-2-carbonyl]amino]benzoyl]piperazine-1-carbonyl]piperidin-1-ium-1-yl]acetic acid. 1:1 formate] | 350 nM
12 | Cn1c(-c2cn(-c3ccc(N4CCOCC4)cn3)nc2C(F)(F)F)cnc1C(=O)Nc1ccc(C(=O)N2CCN(C(=O)C3CC[N+](CC(=O)O)(CC4CNC4)CC3)CC2)c(Cl)c1 (stereo not drawn) [Example 26, 2-[1-(azetidin-3-ylmethyl)-4-[4-[2-chloro-4-[[1-methyl-5-[1-(5-morpholino-2-pyridyl)-3-(trifluoromethyl)pyrazol-4-yl]imidazole-2-carbonyl]amino]benzoyl]piperazine-1-carbonyl]piperidin-1-ium-1-yl]acetic acid. 1:1 formate] | 360 nM
13 | Cn1c(-c2cn(-c3ccc4[nH]ccc4n3)nc2C(F)(F)F)cnc1C(=O)Nc1ccc(C(=O)N2CCN(C(=O)[C@H]3CC[N@+](CC(=O)O)(CC4CNC4)CC3)CC2)c(Cl)c1 [Example 27, cis-2-[1-(azetidin-3-ylmethyl)-4-[4-[2-chloro-4-[[1-methyl-5-[1-(1H-pyrrolo[3,2-b]pyridin-5-yl)-3-(trifluoromethyl)pyrazol-4-yl]imidazole-2-carbonyl]amino]benzoyl]piperazine-1-carbonyl]piperidin-1-ium-1-yl]acetic acid. 1:1 2,2,2-trifluoroacetate] | 360 nM
14 | Cn1c(-c2cn(-c3ccc(NC[C@@H]4CCCN4)cn3)nc2C(F)(F)F)cnc1C(=O)Nc1ccc(C(=O)N2CCN(C(=O)C3CC[N+](CC(=O)O)(CC4CNC4)CC3)CC2)c(Cl)c1 (stereo partly drawn) [Example 28, 2-[1-(azetidin-3-ylmethyl)-4-[4-[2-chloro-4-[[1-methyl-5-[1-[5-[[(2S)-pyrrolidin-2-yl]methylamino]-2-pyridyl]-3-(trifluoromethyl)pyrazol-4-yl]imidazole-2-carbonyl]amino]benzoyl]piperazine-1-carbonyl]piperidin-1-ium-1-yl]acetic acid. 1:1 2,2,2-trifluoroacetic acid. 1:1 2,2,2-trifluoroacetate] | 360 nM
15 | CNc1ccc(-n2cc(-c3cnc(C(=O)Nc4ccc(C(=O)N5CCN(C(=O)[C@H]6CC[N@+](CC(=O)O)(CC7CNC7)CC6)CC5)c(Cl)c4)n3C)c(C(F)(F)F)n2)nc1 [Example 29, cis-2-[1-(azetidin-3-ylmethyl)-4-[4-[2-chloro-4-[[1-methyl-5-[1-[5-(methylamino)-2-pyridyl]-3-(trifluoromethyl)pyrazol-4-yl]imidazole-2-carbonyl]amino]benzoyl]piperazine-1-carbonyl]piperidin-1-ium-1-yl]acetic acid. 1:1 2,2,2-trifluoroacetate] | 360 nM
